# Laboratory results taken from patent US20090253721A1, “Combined treatment with radiation and an epidermal growth factor receptor kinase inhibitor” (priority 2004, published 2009).
# Key:
# [1] = tested on: UM-SCC1 cells; assay: PARP cleavage by western blot, UM-SCC1; format: cell-based, human
# Description: (§1) Following treatment, cells were lysed with RIPA buffer and sonicated in complete proteinase inhibitor cocktail (Roche) and sodium orthovanadate. Fifteen μg of protein extracts were mixed with SDS sample buffer and electrophoresed onto a 10% SDS-polyacrylamide gel under reducing conditions. The separated proteins were transferred onto nitrocellulose membranes (Amersham Pharmacia Biotech, Piscataway, N.J.). The membrane was incubated for 1 hour in blocking buffer (Tris-buffered saline with 0.1% Tween (TBS-T) and 5% nonfat dry milk). The membranes were then incubated with specific primary antibodies. After washing three times with TBS-T buffer, the membrane was incubated with horseradish peroxidase-linked secondary antibody (Amersham Pharmacia Biotech, Piscataway, N.J.) at 1:5000 dilution for 1 hour at room temperature. The signals were visualized with the ECL+ detection system and autoradiography.
# [2] = tested on: H226 cells; assay: Radiation clonogenic survival, H226; format: cell-based, human; details: erlotinib 0.1 μM for 3 days before irradiation, 6 and 9 Gy (p<0.05)
# Description: (§3) Survival following radiation exposure was defined as the ability of the cells to maintain their clonogenic capacity and to form colonies. Briefly, after exposure to radiation, cells were trypsinized, counted and seeded for colony formation in 35-mm dishes at 50-5000 cells/dish. After incubation intervals of 14-21 days, colonies were stained with crystal violet and manually counted. Colonies consisting of 50 cells or more were scored, and 5 replicate dishes containing 10-150 colonies/dish were counted for each treatment. Experiments were performed in duplicate.
# [3] = tested on: H226 xenografts; assay: Tumor growth in athymic nude mice, H226 xenografts
# Description: (§4) Erlotinib was administered by oral gavage once daily for 3 weeks. Radiation treatment was delivered twice a week for 3 weeks using custom mouse jigs designed to expose only the tumor bed to radiation.
# (§5) Combination studies determining apoptosis induction were evaluated using Student's t test with the resultant P value representing a two-sided test of statistical significance.
# [4] = tested on: HNSCC and NSCLC cell lines; assay: Apoptosis by fluorescein labeled caspase inhibitor (caspase activity), cell lines pooled; format: cell-based, human; details: erlotinib alone 1 μM x 48 hrs
# Description: (§2) Cells were seeded in 100-mm dishes at a density of 6×10^5 cells per plate and upon treatment, were harvested by trypsinization, centrifuged, and the cell pellet re-suspended to a final concentration of 2×10^6 cells/ml. Caspase activity was analyzed by fluorescence spectroscopy according to the manufacturer's protocol (Chemicon International). Briefly, the 300 μL of cells were incubated with 1× Fluorescein labeled pan-caspase inhibitor FAM-VAD-FMK (Ekert, P. G., et al. (1999) Cell Death Differ. 6(11):1081-6) at 37° C. for 1 hr in a humidified atmosphere of 5% CO2. Cells were then washed twice with wash buffer, finally resuspended in 320 μL PBS. A 100 μL aliquot of the cell suspension was transferred to a black 96-well plate in triplicate. Fluorescence was analyzed on a SpectraMax fluorescence plate reader at 550 nm excitation and 600 nm emission wavelengths.
# [5] = tested on: Rad51; assay: Radiation-induced Rad51 expression, immunoblot; format: cell-based, human; details: pretreated with 1 μM erlotinib for 24 hrs; H226 and UM-SCC6; 6 Gy
# Description: as §1
# [6] = tested on: PCNA; assay: Immunohistochemical determination of PCNA in H226 xenografts; format: in vivo, athymic mice
# [7] = tested on: UM-SCC6 cells; assay: PARP cleavage by western blot, UM-SCC6; format: cell-based, human; details: erlotinib/radiation combination, data not shown
# [8] = tested on: UM-SCC6 xenografts; assay: Tumor growth in athymic nude mice, UM-SCC6 xenografts
# Description: as §4, §5
# [9] = tested on: UM-SCC6 and H226 cell lines; assay: Cell cycle analysis by flow cytometry (propidium iodide); format: cell-based, human
# Description: Cells were harvested after 72 hours exposure of erlotinib, 24 hours exposure to 6 Gy radiation, or in combination. […] After removal of ethanol by centrifugation, cells were then incubated with phosphate-citric acid buffer [0.2 M Na2HPO4 (pH 7.8), and 4 mM citric acid] at room temperature for 45 min. After centrifugation, cells were then stained with a solution containing 33 μg/ml PI (propidium iodide), 0.13 mg/ml RNase A, 10 mM EDTA, and 0.5% Triton X-100 at 4° C. for 24 hours. Stained nuclei were analyzed for DNA-PI fluorescence using a Becton Dickinson FACScan flow cytometer. Resulting DNA distributions were analyzed by Modfit (Verity Software House, Inc., Topsham, Me.) for the proportion of cells in sub-G0, G1, S, and G2-M phases of the cell cycle.
# [10] = tested on: UM-SCC1 cells; assay: Apoptosis by caspase activity, UM-SCC1; format: cell-based, human; details: erlotinib 1 μM combined with radiation 6 Gy
# Description: as §2
# [11] = tested on: UM-SCC1 cells; assay: Radiation clonogenic survival, UM-SCC1; format: cell-based, human; details: erlotinib 0.1 μM for 3 days before irradiation, 3, 6, and 9 Gy (p<0.01)
# Description: as §3
# [12] = tested on: refractory NSCLC; details: refractory NSCLC patients receiving erlotinib; cited from earlier work
# [13] = tested on: H226 cells; assay: Apoptosis by caspase activity, H226; format: cell-based, human; details: erlotinib 1 μM combined with radiation 6 Gy
# Description: as §2
# [14] = tested on: UM-SCC6 cells; assay: Apoptosis by caspase activity, UM-SCC6; format: cell-based, human; details: erlotinib 1 μM combined with radiation 6 Gy, p<0.05
# Description: as §2
# [15] = tested on: Egr-1, CXCL1, and IL-1β expression; assay: Validation of gene expression by quantitative RT-PCR and western blot; format: cell-based, human; details: UM-SCC6; erlotinib 1.0 μM x 24 hrs pretreatment, 6 Gy
# Description: as §1
# To further validate the microarray findings, we performed quantitative real-time PCR (QPCR) using the SYBR green dye as previously described (Kleer, C. G., et al. (2003) Proc. Natl. Acad. Sci. USA 100(20):11606-11611). Briefly, 1 μg of total RNA isolated from each sample was reverse transcribed into first strand cDNA. Threshold levels were set for each experiment during the exponential phase of the PCR reaction using the SDS v 1.7 software (Applied Biosystems), and the quantity of DNA in each sample was calculated by interpolating its Ct value versus a standard curve of Ct values obtained from serially diluted cDNA from a mixture of all of the samples using Microsoft Excel. All standard curves had R2 values ≧0.99 over three orders of magnitude. The calculated quantity of the target gene for each sample was then divided by the average calculated quantity of the housekeeping genes glyceraldehyde-3 phosphate dehydrogenase (GAPD) and hydroxymethylbilane synthase (HMBS) corresponding to each sample to give a relative expression of the target gene for each sample. All oligonucleotide primers were synthesized by Integrated DNA Technologies. […]
# [16] = erlotinib alone 0.8 mg daily oral gavage, 3 weeks
# [17] = erlotinib combined with radiation (2 Gy twice per week), 55-day observation, p<0.05
smiles,measurement,setting,value
"C#Cc1cccc(Nc2ncnc3cc(OCCOC)c(OCCOC)cc23)c1 [erlotinib, [6,7-bis(2-methoxyethoxy)-4-quinazolin-4-yl]-(3-ethynylphenyl) amine]",PARP cleavage,"[1]; erlotinib 1 μM combined with radiation 6 Gy, UM-SCC1",Further increase in PARP cleavage
same,PARP cleavage,"[1]; erlotinib alone 1 μM, 10 and 24 hours following treatment",modest PARP cleavage
same,radiosensitization (reduction in clonogenic survival),[2],modest but consistent radiosensitization
same,tumor growth,[3]; [16],modest inhibition of tumor growth
same,"tumor growth inhibition, nature of combination effect",[3]; [17],synergistic
same,increase in apoptosis as determined by caspase activity,[4],10-25%
same,radiation-induced increase in Rad51 expression,[5],attenuated significantly
same,number of proliferating cells (PCNA staining),[6]; combined erlotinib/radiation,smallest
same,number of proliferating cells (PCNA staining),[6]; erlotinib alone,intermediate
same,enhancement in PARP cleavage,[7],even more pronounced
same,tumor growth,[8]; [16],modest inhibition of tumor growth
same,"tumor growth inhibition, nature of combination effect",[8]; [17],additive
same,S phase fraction,[9]; erlotinib (0.1 μM) combined with radiation (6 Gy),further reduction in the S phase fraction
same,"cell cycle phase distribution, G1",[9]; erlotinib alone (0.1 μM),accumulation of cells in G1
same,number of cells in S phase,[9]; erlotinib alone (0.1 μM),reduced the number of cells in S phase
same,"increase in apoptosis, combined treatment",[10],additive increase in apoptosis
same,radiosensitization (reduction in clonogenic survival),[11],modest but consistent radiosensitization
same,survival,[12],survival extension
same,"increase in apoptosis, combined treatment",[13],additive increase in apoptosis
same,"increase in apoptosis induction, combined treatment",[14],supra-additive increase in apoptosis induction
same,radiation-induced enhancement of CXCL1 expression,[15],inhibited
same,radiation-induced enhancement of Egr-1 expression,[15],inhibited
same,radiation-induced enhancement of IL-1β expression,[15],inhibited
